The values that follow come from US11357873B2, “Chiral cyclen compounds and their uses” (THE HONG KONG POLYTECHNIC UNIVERSITY, priority 2016, dated 2022).

For data set [1] the following is noted: amine bond, 12-membered ring.
Data set [2] in a line: Stability of isomers on heating and storage by 1H NMR. The format is physicochemical. The note with it: solution of [EuL2A]− and [EuL2B]− at 1:0.25, 90° C. for 3 days. The source says: (§1) In aqueous solution, the ratio of TSA/SA isomers of Eu(III) and Yb(III) complexes in DOTA-like systems can be easily determined by ^1H NMR as two well-defined sets of six resonances are observed for the diastereotopic protons in CH2CO and NCH2CH2N.^13 Although the Gd(III) complexes cannot be analyzed by NMR, their ratio of isomers are expected to be similar to those of the Eu(III) and Yb(III) complexes because the ionic radius of Gd(III) is similar to the ionic radius of Eu(III) and Yb(III).
(§2) The conformational properties of the lanthanide complexes were investigated by both HPLC and NMR spectroscopy. The ^1H NMR spectra of the four europium chiral DOTA-based complexes are compared in FIG. 3. […] In the cases of [EuL3]^− and [EuL4]^−, the twisted antiprismatic isomers were more dominant, with the ratio of 6.52 for [EuL3]^− and 13.50 for [EuL4]^− observed.
The stability of the complexes toward racemization over time was also monitored by ^1H NMR (FIG. 20). […] Nevertheless, the original set of peaks existed predominately when the pD was adjusted from 6.0 to 7.5 and further heated for 12 h at 90° C. It can be observed that while the purity of the ligands may not be highly satisfactory, pure complexes could be obtained by HPLC separation after complexation. This phenomenon indicates the purification of DOTA-based ligands should be handled with care.

Data set [3] can be described thus: Relaxivity (r1, r2) measurement of Gd(III) complexes in water, BSA and human plasma. Set-up: r1 Human Plasma (1.5 T): unit not given beside the values. The format is physicochemical. The note with it: 1.5 T, 37° C. The procedure: This is very important because the huge difference in the inner-sphere coordinated water exchange rate between the two isomers is a key factor for applications, for example, as MRI contrast agents. To show their potential value, the two diastereomers of [GdL2]^− ([GdL2A]^− and [GdL2B]^−) were separated and their relaxivities were measured. The relaxivities of [GdL1]^−, [GdL2]^−, [GdL2A]^−, [GdL2B]^− and [GdDOTA]^− in water at different magnetic strengths (1.5 T and 11.7 T) were compared, with or without the presence of BSA and human plasma (1.5 T) (Table 1). It is clearly seen that the complexes of [GdL1]^−, [GdL2A]^− and [GdL2B]^− have relaxivity properties similar to that of the [GdDOTA]^− complex.

The nature of data set [4]: TSA/SA isomer ratio of lanthanide complexes by 1H NMR. The format is physicochemical. The note with it: 25° C., 400 MHz, pD 7.0, aqueous solution.
Excerpt: as §1, §2
The ratio of TSA/SA isomers for [YbL1]^− (0.28) and [YbL2]^− (0.93) was relatively lower than that of the europium analogues. The ratio change from [YbL2]^− to [YbL3]^− was also not as apparent.

Like-named read-outs stand apart in the source and are kept apart here.

In data set [1] (from CC(C)(C)OC(=O)NCCCCC1C[N@@]1Cc1ccccc1, TsOH.H2O, MeCN, 82.1 mM, 25.0 °C), `CC(C)(C)OC(=O)NCCCC[C@H]1CN(Cc2ccccc2)[C@@H](CCCCNC(=O)OC(C)(C)C)CN(Cc2ccccc2)[C@@H](CCCCNC(=O)OC(C)(C)C)CN(Cc2ccccc2)[C@@H](CCCCNC(=O)OC(C)(C)C)CN1Cc1ccccc1` had a ring closure, isolated yield of 24.5%.

With `CC(C)C[C@H]1CN(Cc2ccccc2)[C@@H](CC(C)C)CN(Cc2ccccc2)[C@@H](CC(C)C)CN(Cc2ccccc2)[C@@H](CC(C)C)CN1Cc1ccccc1`, the ring closure, isolated yield in data set [1] was 28.3%. Same read-out and setting: as for `CC[C@H]1CN(Cc2ccccc2)[C@@H](CC)CN(Cc2ccccc2)[C@@H](CC)CN(Cc2ccccc2)[C@@H](CC)CN1Cc1ccccc1`, the figure is 27.5%. In data set [1] (from O=[N+]([O-])c1ccc(CC2C[N@@]2Cc2ccccc2)cc1, TsOH.H2O, MeCN, 84.7 mM, 25.0 °C), `O=[N+]([O-])c1ccc(C[C@H]2CN(Cc3ccccc3)[C@@H](Cc3ccc([N+](=O)[O-])cc3)CN(Cc3ccccc3)[C@@H](Cc3ccc([N+](=O)[O-])cc3)CN(Cc3ccccc3)[C@@H](Cc3ccc([N+](=O)[O-])cc3)CN2Cc2ccccc2)cc1` displayed a ring closure, isolated yield of 20.6%. In data set [1], `c1ccc(C[C@H]2CN(Cc3ccccc3)[C@@H](Cc3ccccc3)CN(Cc3ccccc3)[C@@H](Cc3ccccc3)CN(Cc3ccccc3)[C@@H](Cc3ccccc3)CN2Cc2ccccc2)cc1` returned a ring closure, isolated yield of 25%.

`CC[C@H]1CN(CC(=O)[O-])[C@@H](CC)CN(CC(=O)[O-])[C@@H](CC)CN(CC(=O)[O-])[C@@H](CC)CN1CC(=O)[O-].[Eu+3]` (single isomer, unassigned) [[EuL2A]^−]: in data set [2], the “isomer ratio after heating (lack of racemization)” value is on record as “remained at the same ratio”. For `CC[C@H]1CN(CC(=O)[O-])[C@@H](CC)CN(CC(=O)[O-])[C@@H](CC)CN(CC(=O)[O-])[C@@H](CC)CN1CC(=O)[O-].[Eu+3]` (single isomer, unassigned) [[EuL2B]^−], the “isomer ratio after heating (lack of racemization)” value in data set [2] was “remained at the same ratio”. As for `CC[C@H]1CN(CC(=O)[O-])[C@@H](CC)CN(CC(=O)[O-])[C@@H](CC)CN(CC(=O)[O-])[C@@H](CC)CN1CC(=O)[O-].[Gd+3]` (single isomer, unassigned) [[GdL2B]^−], in data set [3], the “r1 4.5 w/v BSA (1.5 T)” value is reported as 3.6, the “r1 Human Plasma (1.5 T)” value came out at 3.5 and the “r1 Water (1.5 T)” value turned out to be 3.0. `C[C@H]1CN(CC(=O)[O-])[C@@H](C)CN(CC(=O)[O-])[C@@H](C)CN(CC(=O)[O-])[C@@H](C)CN1CC(=O)[O-].[Eu+3]` [[EuL1]^−]: the “isomer ratio of TSA/SA” value in data set [4] is 0.75. Turning to `CC[C@H]1CN(CC(=O)[O-])[C@@H](CC)CN(CC(=O)[O-])[C@@H](CC)CN(CC(=O)[O-])[C@@H](CC)CN1CC(=O)[O-].[Eu+3]` [[EuL2]^−], the “isomer ratio of TSA/SA” value in data set [4] was 1.27.

Consider `CC(C)C[C@H]1CN(CC(=O)[O-])[C@@H](CC(C)C)CN(CC(=O)[O-])[C@@H](CC(C)C)CN(CC(=O)[O-])[C@@H](CC(C)C)CN1CC(=O)[O-].[Eu+3]` [[EuL3]^−], for which, in data set [4], the “isomer ratio of TSA/SA” value worked out at 6.52. Regarding `O=C([O-])CN1CC(Cc2ccccc2)N(CC(=O)[O-])CC(Cc2ccccc2)N(CC(=O)[O-])CC(Cc2ccccc2)N(CC(=O)[O-])CC1Cc1ccccc1.[Eu+3]` (centres unmarked) [[EuL4]^−], the “isomer ratio of TSA/SA” value in data set [4] is reported as 13.50. As to `O=C([O-])CN1CCN(CC(=O)[O-])CCN(CC(=O)[O-])CCN(CC(=O)[O-])CC1.[Gd+3]` [[GdDOTA]^−, reference compound], in data set [3], the “r1 4.5 w/v BSA (1.5 T)” value was 4.1, the “r1 Human Plasma (1.5 T)” value amounted to 4.0 and the “r1 Water (1.5 T)” value is given as 3.2. As to `C[C@H]1CN(CC(=O)[O-])[C@@H](C)CN(CC(=O)[O-])[C@@H](C)CN(CC(=O)[O-])[C@@H](C)CN1CC(=O)[O-].[Yb+3]` [[YbL1]^−], the “isomer ratio of TSA/SA” value in data set [4] worked out at 0.28. On to `CC[C@H]1CN(CC(=O)[O-])[C@@H](CC)CN(CC(=O)[O-])[C@@H](CC)CN(CC(=O)[O-])[C@@H](CC)CN1CC(=O)[O-].[Yb+3]` [[YbL2]^−], for which the “isomer ratio of TSA/SA” value in data set [4] worked out at 0.93.

Consider `O=C([O-])CN1CC(Cc2ccccc2)N(CC(=O)[O-])CC(Cc2ccccc2)N(CC(=O)[O-])CC(Cc2ccccc2)N(CC(=O)[O-])CC1Cc1ccccc1.[Yb+3]` (centres unmarked) [[YbL4]^−], for which the “isomer ratio of TSA/SA” value in data set [4] was “essentially one TSA isomer”.
